According to patent US20080274112A1, “Nogo Receptor Antagonists” (priority 2003, published 2008):

Experiments:
MAG + sNogoR344-Fc = biological target: T1, MAG + sNogoR344-Fc (Rattus norvegicus, UniProt Q99M75, A303T/C287S/C43R/E284G/T53A); assay: mAb/Fab inhibition of MAG binding to sNogoR344-Fc (ELISA)
T1 construct: amino acid residues 26-344 of rat Nogo receptor-1; made in house
T1 sequence (Q99M75 26-344 C43R/T53A/E284G/C287S/A303T): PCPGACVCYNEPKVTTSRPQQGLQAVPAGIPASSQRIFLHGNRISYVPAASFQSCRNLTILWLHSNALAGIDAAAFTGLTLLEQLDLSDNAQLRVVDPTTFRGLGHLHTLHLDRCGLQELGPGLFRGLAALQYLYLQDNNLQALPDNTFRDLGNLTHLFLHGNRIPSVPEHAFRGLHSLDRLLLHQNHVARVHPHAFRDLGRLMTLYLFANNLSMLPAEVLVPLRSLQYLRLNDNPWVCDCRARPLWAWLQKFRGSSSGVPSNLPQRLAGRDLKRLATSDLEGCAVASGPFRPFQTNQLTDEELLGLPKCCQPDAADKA
Description: (§1) 0.5 μg of a soluble Nogo receptor-1 fusion protein comprising amino acid residues 26-344 of rat Nogo receptor-1 and the hinge and Fc region of the rat IgG1 molecule (sNogoR344-Fc) produced as described below was immobilized on 250 μg of protein-A- or wheatgerm agglutinin-conjugated SPA beads (Amersham Pharmacia Biotech) for 2 hours at 25° C. SPA beads coupled with Fc-sNogoR-1, anti-Nogo receptor-1 mAb and 1 μl ^125I-Nogo66 (Amersham, 2000 Ci/mmol, 1 nM) in 50 μl of the HEPES-buffered incubation medium (10 mM HEPES, pH 7.4, 0.1% bovine serum albumin, 0.1% ovalbumin, 2 mM MgCl2, 2 mM CaCl2 and protease inhibitors) was added to each sample well. After 16 hours, radioactivity was measured in quadruplicate samples using a TopCount® (Packard). IC50 values were calculated from a curve-fit analysis (FIG. 3) (PRISM, GraphPad Software, NJ). In some experiments, we also used AP-ligand conjugates (e.g. AP-Nogo66) and detected binding by monitoring alkaline phosphatase activity. We also assayed the ability of the mAbs to block binding of the ligands MAG-Fc and AP-OM-gp to Nogo receptor-1.
(§2) The calculated IC50 for Nogo66 for 7E11 and 1H2 were 400 nM and 60 nM, respectively. The data from ELISAs monitoring mAb-mediated inhibition of binding of the three ligands to Nogo receptor-1 are summarized in Table 6.
(§3) We also performed ELISA binding assays using the Fab-phage 14D5.

[1] = biological target: polypeptide p-617 (SEQ ID NO: 1) (Rattus norvegicus, UniProt Q99M75); assay: Specificity ELISA on polypeptide p-617; format: binding
Description: To determine the specificity of the monoclonal and Fab-phage antibodies produced in Examples 1 and 2, we performed an ELISA using a panel of Nogo receptor-1 polypeptides. The panel consisted of sNogoR310-Fc (a fusion protein comprising amino acids 26-310 of rat Nogo receptor-1 and a rat Fc fragment), sNogoR344-Fc (see supra), polypeptide p-617 (SEQ ID NO: 1), polypeptide p-618 (a 19-amino acid polypeptide from the LRR7 region of rat Nogo receptor-1; FIG. 2; SEQ ID NO: 11) and polypeptides p-4 and p-5 (polypeptides from the LRR5 and LRRCT regions of Nogo receptor-1, respectively). Ovalbumin and BSA were used as controls.

OM-gp + sNogoR344-Fc = biological target: T2, OM-gp + sNogoR344-Fc (Rattus norvegicus, UniProt Q99M75, A303T/C287S/C43R/E284G/T53A); assay: mAb/Fab inhibition of OM-gp binding to sNogoR344-Fc (ELISA)
T2 construct: amino acid residues 26-344 of rat Nogo receptor-1; made in house
T2 sequence (Q99M75 26-344 C43R/T53A/E284G/C287S/A303T): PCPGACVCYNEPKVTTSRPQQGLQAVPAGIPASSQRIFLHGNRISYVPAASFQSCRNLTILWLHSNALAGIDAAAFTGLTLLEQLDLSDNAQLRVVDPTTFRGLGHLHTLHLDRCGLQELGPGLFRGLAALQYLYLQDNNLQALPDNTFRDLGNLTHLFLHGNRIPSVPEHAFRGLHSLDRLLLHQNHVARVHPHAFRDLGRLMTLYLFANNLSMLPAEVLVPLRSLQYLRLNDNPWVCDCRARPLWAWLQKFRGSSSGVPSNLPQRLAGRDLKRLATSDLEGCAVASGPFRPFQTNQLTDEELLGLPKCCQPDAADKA
Description: as §1, §2, §3

DRG neurons = assay: Neurite outgrowth assay, myelin mixed with test protein (Example 10); format: cell-based; conditions: P3-4 rat DRG; spotted mixed with CNS myelin
Description: Lab-Tek® culture slides (4 wells) were coated with 0.1 mg/ml poly-D-lysine (Sigma®). CNS myelin alone or mixed with sNogoR310, sNogoR310-Fc fusion protein, mAb 5B10 or control PBS were separately spotted as 3 μl drops. Fluorescent microspheres (Polysciences) were added to the myelin/PBS to allow later identification of the drops (Grandpre et al, Nature 403, 2000). Lab-Tek® slides were then rinsed and coated with 10 μg/ml laminin (Gibco™).
Dorsal root ganglions (DRG's) from P3-4 Sprague Dawley rat pups were dissociated with 1 mg/ml collagenase type 1 (Worthington), triturated with fire-polished Pasteur pipettes pre-plated to enrich in neuronal cells and finally plated at 23,000 cells/well on the pre-coated Labtek culture slides. The culture medium was F12 containing 5% heat inactivated donor horse serum, 5% heat inactivated fetal bovine serum and 50 ng/ml MNGF and incubated at 37° C. and 5% CO2 for 6 hours.
Slides were fixed for 20 minutes with 4% paraformaldehyde containing 20% sucrose and stained for the neuronal marker anti beta-III-tubulin (Covance TUJ1) diluted 1:500. As secondary antibody anti-mouse Alexa Fluor® 594 (Molecular Probes) was diluted 1:300 and slides were coverslipped with Gel/Mount™ (Biømeda™). 5× digital images were acquired with OpenLab™ software and analyzed by using the MetaMorph® software for quantification of neurite outgrowth.

Nogo66 + sNogoR344-Fc = biological target: T3, Nogo66 + sNogoR344-Fc (Rattus norvegicus, UniProt Q99M75, A303T/C287S/C43R/E284G/T53A); assay: mAb/Fab inhibition of Nogo66 binding to sNogoR344-Fc (ELISA)
T3 construct: amino acid residues 26-344 of rat Nogo receptor-1; made in house
T3 sequence (Q99M75 26-344 C43R/T53A/E284G/C287S/A303T): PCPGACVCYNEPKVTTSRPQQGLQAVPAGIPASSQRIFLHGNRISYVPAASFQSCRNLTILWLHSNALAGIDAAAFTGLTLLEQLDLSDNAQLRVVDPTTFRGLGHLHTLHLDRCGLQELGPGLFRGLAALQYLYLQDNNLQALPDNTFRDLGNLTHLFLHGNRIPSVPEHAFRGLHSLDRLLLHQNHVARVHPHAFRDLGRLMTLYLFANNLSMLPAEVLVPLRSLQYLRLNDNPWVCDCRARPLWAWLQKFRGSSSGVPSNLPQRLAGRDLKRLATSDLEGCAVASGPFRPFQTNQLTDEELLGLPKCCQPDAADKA
Description: as §1, §2, §3

7E11 [2] = assay: 7E11 binding to digest peptides of NgR1 (MS analysis); parameters: species or system murine; conditions: trypsin or Asp-N digest peptides
Description: The 7E11 binding site was further analyzed by testing trypsic peptide digests of sNgR310. […] 7E11 bound only a single tryptic digest peptide, providing additional evidence that […] binds to a single epitope on NgR1. Subsequent mass spectroscopy (MS) and sequence analyses identified the bound peptide to be […] (SEQ ID NO: 26).
The LDLSDNAQLRVVDPTT peptide (SEQ ID NO: 1) was subjected to further mapping analysis. The peptide was digested with trypsin, which yielded two major fragments, LDLSDNAQLR (SEQ ID NO: 27) and VVDPTT (SEQ ID NO: 28), and the ability of 7E11 to bind them was tested. […] Within this peptide fraction, detailed MS analysis identified several scrambled peptides that also bound 7E11, including peptides with deamination at Asn115 and Gln117, addition of Alanine at 112 or 113, or addition of Serine at 114 (Table 3).
The LDLSDNAQLRVVDPTT peptide was also digested with the endoprotease Asp-N and 7E11 binding was tested. Endoprotease Asp-N cleaved the peptide into 3 peptide fragments, L, DLS and DNAQLRVVDPTT (SEQ ID NO: 36). Of these products, 7E11 bound the DNAQLRVVDPTT peptide. Taken together, the trypsin and Asp-N cleavage data further localize the 7E11 binding epitope to the sequence shared between them, DNAQLR (SEQ ID NO: 37).

7E11 [3] = assay: 7E11 binding to immobilized point-mutant peptides (EC50); parameters: species or system murine
Description: To verify these contact points, several peptides containing point mutations within the LDLSDNAQLR sequence (SEQ ID NO: 27) were generated and tested for 7E11 binding. The peptides were immobilized on a MaxiSorp™ plate (Nunc®) and serial dilutions of […] were applied. […] The most significant change in EC50 was observed when Arg119 was mutated to Alanine.

Nogo receptor-1 = assay: Blocking of ligand binding to Nogo receptor-1 by soluble receptors

For “5B10: murine monoclonal anti-Nogo receptor-1 antibody, IgG1 kappa, ATCC PTA-4588; immunogen rat Nogo receptor-1 residues 110-125”, the “inhibition of binding of MAG to sNogoR344-Fc” value (MAG + sNogoR344-Fc) was “inhibited binding”, the “binding to polypeptide p-617” value [1] was “specifically bound” and the “inhibition of binding of OM-gp to sNogoR344-Fc” value (OM-gp + sNogoR344-Fc) was “inhibited binding”. The “protection from myelin-mediated inhibition of neurite outgrowth” value (DRG neurons) was “protected” and the “inhibition of binding of Nogo66 to sNogoR344-Fc” value (Nogo66 + sNogoR344-Fc) was “inhibited binding”.

In the case of “AAAFGLTLLEQLDLSDNAQLR (AAAFTGLTLLEQLDLSDNAQLR) [tryptic digest peptide of sNgR310]”, the “binding by 7E11” value (7E11 [2]) is reported as “bound”.

With DNAQLRVVDPTT the “binding by 7E11” value (7E11 [2]) was “bound”.

In the case of LDLSDNAALRVVDPTT [Q117A], the “increase of EC50 versus original peptide” value (7E11 [3]) is reported as 30 fold.

For LDLSDNAQLHVVDPTT [R119H], the “increase of EC50 versus original peptide” value (7E11 [3]) was 25 fold.

For LDLSDNAQLR, the “binding by 7E11” value (7E11 [2]) was “bound”.

B1: sNogoR344: soluble Nogo receptor-1 polypeptide, residues 26-344 or 27-344 (protein, listed as Rattus sp.)
chain: PCPGACVCYNEPKVTTSRPQQGLQAVPAGIPASSQRIFLHGNRISYVPAASFQSCRNLTILWLHSNALAGIDAAAFTGLTLLEQLDLSDNAQLRVVDPTTFRGLGHLHTLHLDRCGLQELGPGLFRGLAALQYLYLQDNNLQALPDNTFRDLGNLTHLFLHGNRIPSVPEHAFRGLHSLDRLLLHQNHVARVHPHAFRDLGRLMTLYLFANNLSMLPAEVLVPLRSLQYLRLNDNPWVCDCRARPLWAWLQKFRGSSSGVPSNLPQRLAGRDLKRLATSDLEGCAVASGPFRPFQTNQLTDEELLGLPKCCQPDAADKA
In the case of B1, the “blocking of binding of NogoA, NogoB, NogoC, MAG and OM-gp to Nogo receptor-1” value (Nogo receptor-1) is reported as “block the binding”.
